Molecular target: T1, GCNF LBD (Homo sapiens, UniProt Q15406)
T1 construct: Human GCNF (NR6A1) LBD (residues 248-480); made in house; host or cells: E. coli BL(21) DE3
T1 sequence (Q15406 248-480): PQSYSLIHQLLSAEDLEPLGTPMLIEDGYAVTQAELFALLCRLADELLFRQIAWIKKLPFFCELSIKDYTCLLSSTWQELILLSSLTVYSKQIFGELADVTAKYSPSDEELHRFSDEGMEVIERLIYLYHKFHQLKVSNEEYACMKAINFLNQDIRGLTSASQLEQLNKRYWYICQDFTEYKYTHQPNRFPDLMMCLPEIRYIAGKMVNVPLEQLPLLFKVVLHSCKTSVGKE
Test: Differential scanning fluorimetry (DSF) of GCNF LBD
Assay type: binding
Conditions: additional ligand screening
Procedure: DSF Assay. GCNF LBD (5 μM) were mixed with 1× Sypro orange (Invitrogen) in DSF buffer (50 mM HEPES, 50 mM KCl, 5 mM TCEP, 0.5 mM EDTA, pH 7.5). Test compounds was added at 1:1 molar equivalence as protein or replaced with DMSO control. Ten microliters (10 μL)×5 replicates for each sample were plated on 384-well PCR microplate. No protein control and no ligand references were also run simultaneously in 5 replicates on the same plate. A total of 450 compounds (Life Chemicals) previously selected from a nuclear-receptor-biased library targeting REV-ERB were analyzed. Thermal stability was assessed on a Quantstudio 6 instrument (Biosystems) by ramping the temperature from 25° C. to 95° C. at 0.05° C./s and protein melt shifts were subsequently quantified by Boltzmann-derived melting temperature (Tm) using the Protein Thermal Shift (ThermoFisher) software. Positive hits were identified when a thermal shift (ΔTm) of at least 2° C. was observed.
For the DSF ligand titration assay, ligands 30, 34 and 80 were titrated against 5 μM GCNF LBD with a ligand concentration series of 30, 20, 13, 9, 6, 4, 2.6, 1.7 and 0 μM from a 20 mM DMSO stock solution. DSF assay and analysis was then performed as described above. All DSF data were reported as mean±SEM.

SMILES | change in Tm of GCNF
CCOC(=O)C(C)Oc1cccc2c(=O)n(CC(=O)Nc3c(C)cc(C)cc3C)ccc12 (stereo not drawn) [R5] | 1.6 °C
COC(=O)COc1cccc2c(=O)n(CC(=O)NCCc3ccc(OC)c(OC)c3)ccc12 [R9] | 0.8 °C
CCCCCn1c(SCC(=O)CC(=O)OCC)nc2cc(C(=O)NCc3ccco3)ccc2c1=O [R12] | 0.8 °C
O=C1CCCC2=C1C(c1ccc(O)cc1)C1=C(CCCC1=O)O2 [U1] | 0.9 °C
COc1ccc(NC(=O)N2CCC3(CC2)N=C(SCc2ccccc2)C(c2ccccc2)=N3)cc1OC [U2] | 2.3 °C
CC(=O)Nc1ccc(NCC(O)Cn2c3ccccc3n3c(=O)cc(C)c(C#N)c23)cc1 (stereo not drawn) [U7] | 1.0 °C

Source: patent US12478628B2, “Germ cell nuclear factor ligands and methods of use thereof” (Saint Louis University, priority 2020, dated 2025)
